The text below walks through data of patent publication US10543212B2, “Substituted amines for treating cardiac diseases” (Cardurion Pharmaceuticals, LLC, priority 2017, dated 2020).

Usually pIC50 stands for the IC50 on a negative log10 scale, so that one unit is a factor of ten. A higher pIC50 goes with a small IC50.

pIC50: −log10 of the molar value.

The target of one assay is T1, Full-length, GST-tagged, human CaMKIIδ (Homo sapiens, UniProt Q13557).
T1 construct: Full-Length, Glutathione-S-Transferase(GST)-Tagged, Human CaMKIIδ was purchased from Carna Biosciences; purchased Carna Biosciences 02-111
T1 sequence (Q13557 1-478 isoform Q13557-12): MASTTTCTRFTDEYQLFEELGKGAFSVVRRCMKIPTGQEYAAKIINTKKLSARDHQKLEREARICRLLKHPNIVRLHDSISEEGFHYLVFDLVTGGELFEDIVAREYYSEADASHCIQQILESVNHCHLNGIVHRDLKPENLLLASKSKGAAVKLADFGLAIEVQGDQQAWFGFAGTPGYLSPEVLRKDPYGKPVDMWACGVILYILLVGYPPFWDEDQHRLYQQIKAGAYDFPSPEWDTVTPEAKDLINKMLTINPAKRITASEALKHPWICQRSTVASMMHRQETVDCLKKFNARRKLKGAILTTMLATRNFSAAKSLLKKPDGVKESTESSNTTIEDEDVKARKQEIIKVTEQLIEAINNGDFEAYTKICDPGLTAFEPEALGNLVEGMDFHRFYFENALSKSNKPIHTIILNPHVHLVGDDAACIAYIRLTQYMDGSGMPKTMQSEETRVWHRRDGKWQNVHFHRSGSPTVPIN
Description: CaMKIIδ binding assay (TR-FRET with BODIPY-labeled probe ligand). To be noted: CaMKIIδ binding assay, results of Table 2. How it is done:
In vitro CaMKIIδ inhibitory activity was evaluated by a binding assay.
Full-Length, Glutathione-S-Transferase(GST)-Tagged, Human CaMKIIδ was purchased from Carna Biosciences (product #02-111, Kobe, Japan). Full-length bovine calmodulin was purchased from Wako Pure Chemical Industries (Osaka, Japan). Terbium-labeled anti-GST antibody (Tb-anti-GST Ab) was purchased from Life Technologies (Carlsbad, Calif., USA). Boron-dipyrromethene (BODIPY)-labeled probe ligand was synthesized as described below.
Time-Resolved Fluorescence Resonance Energy Transfer (TR-FRET) Assay
All assays were conducted using 384-well, white, flat-bottomed plates (product #784075, Greiner Bio-One, Frickenhausen, Germany) in kinase assay buffer, which consists of 50 mM HEPES pH 7.6, 10 mM MgCl2, 1 mM EGTA, 0.01% Brig-35, 0.1 mM DTT). The fluorescent probe ligand was added at a final concentration of 300 nM to solutions containing 0.21 nM Tb-anti-GST Ab, 1 mM CaCl2), 10 μg/mL calmodulin, and 0.5 nM GST-tagged CaMKIIδ. After shaded incubation of the protein-probe mixture on ice for 30 min, the premix was dispensed in the assay plate including test inhibitors with 4 fold dilution series of eight concentrations. After 1 hr incubation at room temperature, TR-FRET signals were measured in duplicate using an EnVision microplate reader (Perkin Elmer, Waltham, Mass., USA). The solution in each well was excited with a laser (λ=340 nm) reflected by a dichroic mirror (D400/D505 (Perkin Elmer) through an excitation filter (UV (TRF) 340, (Perkin Elmer)), and fluorescence from Tb and BODIPY were detected through two emission filters (CFP 495 (Perkin Elmer) for Tb, Emission 520 (Perkin Elmer) for BODIPY).
The percentage of inhibition of test compounds was calculated according to equation (1) Inhibition (%)=100×([…]−T)/(μH−μL) (1)
Where T is the value of the wells containing test compounds and μH and μL are the mean values of the 0% and 100% inhibition control wells, respectively. The values of the 0 and 100% controls were the signals obtained in the absence and presence of 3 μM its parent compound, respectively. The half maximal inhibitory concentration (IC50) of test compounds was calculated by fitting the data with the logistic equation using XLfit (IDBS, Guildford, UK). The IC50 was classified according to the following activity ranks.
A general note: TR-FRET usually uses a lanthanide donor and a delayed reading to cut background.
The compound `C[C@@H](Cn1cnnn1)Oc1cc(-c2cnc(Nc3cn(C4CCN(Cc5ccsc5)CC4)nc3C(F)(F)F)nc2)ccc1Cl` [Example 560, (S)-5-(3-((1-(1H-tetrazol-1-yl)propan-2-yl)oxy)-4-chlorophenyl)-N-(1-(1-(thiophen-3-ylmethyl)piperidin-4-yl)-3-(trifluoromethyl)-1H-pyrazol-4-yl)pyrimidin-2-amine] had a pIC50 above 8.00. Still for that read-out and setting: the figure for `Cc1ccc(N2CCC(N3CCOCC3)CC2)cc1Nc1ncc(-c2ccc(Cl)c(O[C@@H](C)Cn3cnnn3)c2)cn1` [Example 491] is above 8.00; for `C[C@@H](Cn1cnnn1)Oc1cc(-c2cnc(Nc3ccc4c(c3)N(C(=O)CCCN(C)C)CC4)nc2)ccc1Cl` [Example 436, (S)-1-(6-((5-(3-((1-(1H-tetrazol-1-yl)propan-2-yl)oxy)-4-chlorophenyl)pyrimidin-2-yl)amino)indolin-1-yl)-4-(dimethylamino)butan-1-one] it is above 8.00; for `COc1cnc(N2CCC(C)(O)CC2)cc1Nc1ncc(-c2ccc(Cl)c(O[C@@H](C)Cn3cnnn3)c2)cn1` [Example 481, (S)-1-(4-((5-(3-((1-(1H-tetrazol-1-yl)propan-2-yl)oxy)-4-chlorophenyl)pyrimidin-2-yl)amino)-5-methoxypyridin-2-yl)-4-methylpiperidin-4-ol] it is 7.00 to 8.00. For the compound `COc1cc2cc[nH]c2cc1Nc1ncc(-c2ccc(Cl)c(O[C@@H](C)Cn3cnnn3)c2)cn1` [Example 496, (S)-N-(5-(3-((1-(1H-tetrazol-1-yl)propan-2-yl)oxy)-4-chlorophenyl)pyrimidin-2-yl)-5-methoxy-1H-indol-6-amine], the pIC50 was 7.00 to 8.00. On the same count and under the same terms, in the case of `COc1cc2c(cc1Nc1ncc(-c3ccc(Cl)c(O[C@@H](C)Cn4cnnn4)c3)cn1)CCN(CCO)C2` [Example 480, (S)-2-(6-((5-(3-((1-(1H-tetrazol-1-yl)propan-2-yl)oxy)-4-chlorophenyl)pyrimidin-2-yl)amino)-7-methoxy-3,4-dihydroisoquinolin-2(1H)-yl)ethan-1-ol] it was above 8.00.

`C[C@@H](Cn1cnnn1)Oc1cc(-c2cnc(Nc3cn(C4CCNCC4)nc3C(F)(F)F)nc2)ccc1Cl` [Example 483, (S)-5-(3-((1-(1H-tetrazol-1-yl)propan-2-yl)oxy)-4-chlorophenyl)-N-(1-(piperidin-4-yl)-3-(trifluoromethyl)-1H-pyrazol-4-yl)pyrimidin-2-amine]: the pIC50 is above 8.00. Still for that read-out and setting: the figure for `C[C@@H](Cn1cnnn1)Oc1cc(-c2cnc(Nc3cn(C4CCN(C5CCOC(C)(C)C5)CC4)nc3C(F)(F)F)nc2)ccc1Cl` (stereo partly drawn) [Example 557, 5-(3-(((S)-1-(1H-tetrazol-1-yl)propan-2-yl)oxy)-4-chlorophenyl)-N-(1-(1-(2,2-dimethyltetrahydro-2H-pyran-4-yl)piperidin-4-yl)-3-(trifluoromethyl)-1H-pyrazol-4-yl)pyrimidin-2-amine] is above 8.00.

The same assay, now with this note: CaMKIIδ binding assay; activity class per Table 2.
In turn, `C[C@@H](Cn1cnnn1)Oc1cc(-c2cnc(Nc3cn(CC4(O)CCC5(CC4)OCCO5)nc3OCC(F)(F)F)nc2)ccc1Cl` [Example 899, (S)-8-((4-((5-(3-((1-(1H-tetrazol-1-yl)propan-2-yl)oxy)-4-chlorophenyl)pyrimidin-2-yl)amino)-3-(2,2,2-trifluoroethoxy)-1H-pyrazol-1-yl)methyl)-1,4-dioxaspiro[4.5]decan-8-ol] showed a pIC50 above 8.00.

Staying with this assay, now noted: Table 2; CaMKIIδ binding assay, activity given as class A/B/C.
Compound `Cc1noc(C)c1Nc1ncc(-c2ccc(Cl)c(O[C@@H](C)Cn3cnnn3)c2)cn1` [Example 747, (S)-N-(5-(3-((1-(1H-tetrazol-1-yl)propan-2-yl)oxy)-4-chlorophenyl)pyrimidin-2-yl)-3,5-dimethylisoxazol-4-amine] had a pIC50 of 7.00 to 8.00. Turning to `C[C@@H](Cn1cnnn1)Oc1cc(-c2cnc(Nc3cn(C4CCCCC4O)nc3C(F)(F)F)nc2)ccc1Cl` (stereo partly drawn) [Example 733, 2-(4-((5-(3-(((S)-1-(1H-tetrazol-1-yl)propan-2-yl)oxy)-4-chlorophenyl)pyrimidin-2-yl)amino)-3-(trifluoromethyl)-1H-pyrazol-1-yl)cyclohexan-1-ol], the pIC50 was above 8.00.

Compound `C[C@@H](Cn1cnnn1)Oc1cc(-c2cnc(Nc3cn([C@@H]4C[C@H]5CC[C@@H](C4)N5C)nc3C(F)(F)F)nc2)ccc1Cl` [Example 758, 5-(3-(((S)-1-(1H-tetrazol-1-yl)propan-2-yl)oxy)-4-chlorophenyl)-N-(1-((1R,3s,5S)-8-methyl-8-azabicyclo[3.2.1]octan-3-yl)-3-(trifluoromethyl)-1H-pyrazol-4-yl)pyrimidin-2-amine] gave a pIC50 above 8.00. The same measure, in the same setting: in the case of `C[C@H](CO)n1cc(Nc2ncc(-c3ccc(Cl)c(O[C@@H](C)Cn4cnnn4)c3)cn2)c(OCC(F)(F)F)n1` [Example 787, (R)-2-(4-((5-(3-(((S)-1-(1H-tetrazol-1-yl)propan-2-yl)oxy)-4-chlorophenyl)pyrimidin-2-yl)amino)-3-(2,2,2-trifluoroethoxy)-1H-pyrazol-1-yl)propan-1-ol] it was above 8.00.

The assay is the same for the next values; noted with them: Table 2; activity class for CaMKIIδ.
Compound `C[C@@H](Cn1cnnn1)Oc1cc(-c2cnc(Nc3cc(C4CCN(C5COC5)CC4)c(F)cc3F)nc2)ccc1Cl` [Example 684, (S)-5-(3-((1-(1H-tetrazol-1-yl)propan-2-yl)oxy)-4-chlorophenyl)-N-(2,4-difluoro-5-(1-(oxetan-3-yl)piperidin-4-yl)phenyl)pyrimidin-2-amine] gave a pIC50 of 7.00 to 8.00. Still for that read-out and setting: the figure for `COc1cc(N2CCNC[C@@H]2C)ccc1Nc1ncc(-c2ccc(Cl)c(O[C@@H](C)Cn3cnnn3)c2)cn1` [Example 649, 5-(3-(((S)-1-(1H-tetrazol-1-yl)propan-2-yl)oxy)-4-chlorophenyl)-N-(2-methoxy-4-((S)-2-methylpiperazin-1-yl)phenyl)pyrimidin-2-amine] is above 8.00; for `C[C@@H](Cn1cnnn1)Oc1cc(-c2cnc(Nc3cn([C@H]4CC[C@H](C(=O)O)CC4)nc3C(F)(F)F)nc2)ccc1Cl` [Example 626, trans-(S)-4-(4-((5-(3-((1-(1H-tetrazol-1-yl)propan-2-yl)oxy)-4-chlorophenyl)pyrimidin-2-yl)amino)-3-(trifluoromethyl)-1H-pyrazol-1-yl)cyclohexane-1-carboxylic acid] it is 7.00 to 8.00.

The compound `COc1nc(N2CCCN(C3CCOCC3)CC2)ccc1Nc1ncc(-c2ccc(Cl)c(O[C@@H](C)Cn3cnnn3)c2)cn1` [Example 667, (S)-5-(3-((1-(1H-tetrazol-1-yl)propan-2-yl)oxy)-4-chlorophenyl)-N-(2-methoxy-6-(4-(tetrahydro-2H-pyran-4-yl)-1,4-diazepan-1-yl)pyridin-3-yl)pyrimidin-2-amine] had a pIC50 above 8.00.

Regarding `COc1nn(C2CCN(C3COC3)CC2)cc1Nc1ncc(-c2ccc(Cl)c(O[C@@H](C)Cn3cnnn3)c2)cn1` [Example 661, (S)-5-(3-((1-(1H-tetrazol-1-yl)propan-2-yl)oxy)-4-chlorophenyl)-N-(3-methoxy-1-(1-(oxetan-3-yl)piperidin-4-yl)-1H-pyrazol-4-yl)pyrimidin-2-amine], the pIC50 is above 8.00. The same measure, in the same setting: the figure for `C[C@@H](Cn1cnnn1)Oc1cc(-c2cnc(Nc3cn([C@@H]4Cc5ccccc5[C@@H]4O)nc3C(F)(F)F)nc2)ccc1Cl` [Example 721, (1S,2R)-2-(4-((5-(3-(((S)-1-(1H-tetrazol-1-yl)propan-2-yl)oxy)-4-chlorophenyl)pyrimidin-2-yl)amino)-3-(trifluoromethyl)-1H-pyrazol-1-yl)-2,3-dihydro-1H-inden-1-ol] is 7.00 to 8.00.
